From ChEMBL document CHEMBL4184196, “Design, synthesis, and evaluation of polyamine-memantine hybrids as NMDA channel blockers” (Bioorg Med Chem, 2018)
Structures can show the parent of a compound that is named as a salt. Active and inactive are the calls of the source. The calls are words filed in the database; no cut-off is given here.

Experiments:
Assay type in all cases: cell-based
[1] = target: Glutamate NMDA receptor; Grin1/Grin2a (Rattus norvegicus) (UniProt P35439+Q00959); assay: Antagonist activity at rat brain GluN1/GluN2A receptor expressed in Xenopus laevis oocytes assessed as inhibition of glutamate/glycine-induced channel current at 1 uM by two electrode voltage clamp method
[2] = target: Glutamate NMDA receptor; Grin1/Grin2b (Rattus norvegicus) (UniProt P35439+Q00960); assay: Antagonist activity at rat brain GluN1/GluN2B receptor expressed in Xenopus laevis oocytes assessed as inhibition of glutamate/glycine-induced channel current at 1 uM by two electrode voltage clamp method
[3] = target: Glutamate NMDA receptor; Grin1/Grin2a (Rattus norvegicus, UniProt P35439+Q00959); assay: Antagonist activity at rat brain GluN1/GluN2A receptor expressed in Xenopus laevis oocytes assessed as inhibition of glutamate/glycine-induced channel current by two electrode voltage clamp method
[4] = target: Glutamate NMDA receptor; Grin1/Grin2b (Rattus norvegicus, UniProt P35439+Q00960); assay: Antagonist activity at rat brain GluN1/GluN2B receptor expressed in Xenopus laevis oocytes assessed as inhibition of glutamate/glycine-induced channel current by two electrode voltage clamp method

SMILES | inhibition [1] | inhibition [2] | IC50 [3] [nM] | IC50 [4] [nM]
CC12CC3CC(C)(C1)CC(NCCCCN=C(N)N)(C3)C2 | Active | Active |  | 
CC12CC3CC(C)(C1)CC(NCCCCNCCCCN)(C3)C2 |  |  | 656 | 587
CC12CC3CC(C)(C1)CC(NCCCCNCc1ccccc1)(C3)C2 | Active | Active |  | 
CC12CC3CC(C)(C1)CC(NCCCCCCCCCN)(C3)C2 | Active | Active |  | 
CC12CC3CC(C)(C1)CC(NCCCCN)(C3)C2 | Active | Active |  | 
CC12CC3CC(C)(C1)CC(N)(C3)C2 [MEMANTINE HYDROCHLORIDE] |  |  | 1380 | 
CC12CC3CC(C)(C1)CC(NCCCCNCCCCNC(=N)N)(C3)C2 |  |  | 379 | 433
